Laboratory results from US20240269321A1, “PREPARATION AND STORAGE OF LIPOSOMAL RNA FORMULATIONS SUITABLE FOR THERAPY” (BioNTech SE, priority 2020, published 2024).
Entries after “also recorded” stand apart in the source; their conditions may differ. Where two headings read alike, the source gives them in different places. Blank lines part the entries; values can stand above or below the molecule they belong to.

Key:
[1] = RNA integrity in RNA lipoplexes at 40° C. (capillary electrophoresis); conditions: 21 days, no cryoprotectant
Method: RNA lipoplexes are initially incubated under stress conditions (40° C.) in the absence of cryoprotectant. RNA integrity was analyzed by capillary electrophoresis over 21 days. In order to investigate the optimum pH range in the presence of an exemplary cryoprotectant, RNA lipoplexes were incubated in the presence of HEPES and sucrose at 40° C. and RNA integrity was analyzed for 21 days.
RNA integrity was analyzed as a key physicochemical parameter over 21 days.

[2] = Freezing of RNA lipoplexes with cryoprotectants and NaCl (particle size); format: physicochemical; conditions: for preservation of particle size after a single freezing step: 20% (w/v) cryoprotectant, 0 to 60 mM NaCl, −30° C.
Description: Methods: Different compounds representative for monosaccharides (glucose and sorbitol), disaccharides (sucrose and trehalose), amino acids (arginine, prolin), triols (glycerin) as well as cryoprotectant systems containing mixtures of different sugars (mannitol and sucrose) were investigated in order to identify suited cryoprotectants (FIGS. 25 and 26). Therefore RNA lipoplexes were frozen in the presence of increasing concentration of these compounds. In order to identify minimum content of cryoprotectant at a certain concentration of NaCl, RNA lipoplexes were frozen in the presence of increasing amounts of sucrose or trehalose as representative cryoprotectants (Table 7). The samples were initially frozen a single time in order to determine the concentration range of cryoprotectant to be investigated in detail. In a third experiment, the efficacy of stabilization of the particle size was challenged by freezing of the RNA lipoplexes up to 10 times in the presence of the cryoprotectant trehalose (Table 8).

[3] = Description: The mean value calculated from the first DOPE integrity values of the samples directly after manufacturing (0 month) was set to 1 as the initial integrity value of the respective study arm. The following values were normalized to this starting value.
Method: Liposomes were prepared as described above. To acidify the liposomes, different volumes of a 1 M stock solution of acetic acid was added to the liposomes with a total lipid concentration of 0.9 mM. After that, liposomes were stored at different acetic acid concentrations in a range from 0 mM to 3 mM up to a maximum of 6 months at different temperatures (4° C., 25° C. and 40° C.).

[4] = remark: listed apart in the source
Description: The samples were frozen at −30° C. and then transferred to the respective temperature for long-term storage (either −15 or −30° C.). After defined storage time, samples were analyzed and preservation of the colloidal stability was analyzed by measuring the particle size using PCS. These experiments were performed at a total RNA concentration of 0.05 mg/mL.
Method: To investigate the minimum content of representative cryoprotectants as sucrose, trehalose, glucose and mixtures including dextran required for long-term storage at −20° C., RNA lipoplexes were frozen at a fixed cryoprotectant content in combination with varying NaCl concentrations. For monomeric or dimeric molecular cryoprotectants as glucose, sucrose, and trehalose a concentration of 22% (w/v) was adjusted. These formulations were frozen and stored at −15 to −40° C. and long-term stability was investigated by measuring the particle size using PCS after defined storage time.
The samples were frozen and stored at −20° C. After defined storage time, samples were analyzed and preservation of the colloidal stability was analyzed by measuring the particle size.

[5] = Storage of drug product at −15° C., particle size and AF4; format: physicochemical; conditions: derived from AF4 data, worst-case conditions, 12 months
Description: The AF4 method is a fractionation technique for characterization and separation of nanoparticles, polymers and proteins based on their diffusion coefficient. The separation is achieved using hydrodynamic forces applied in the flat separation channel. Within a channel, a parabolic flow profile is created due to the laminar flow of mobile phase against which a perpendicular force field is applied. The separation was performed by an elution inject program with an inject flow of 0.2 mL/min, detector flow of 0.5 mL/min and crossflow of 1.5 mL/min. The eluted particles were detected by multi-angle light scattering (MALS) detector (HELLEOS II, Wyatt Technology Corp.Santa Barbara, CA, USA). The LS traces were recorded by ASTRA Software Version 7.1.3.25 (Wyatt Technology Europe, Dernbach Germany).
Method: BM1 RNA lipoplexes were prepared as described above.
All other RNA lipoplexes were cryoprotected by adding cryoprotection buffers with no EDTA disodium salt (groups 0 mM and 0.4 mM EDTA disodium salt) or with EDTA disodium salt in a ratio of 1 to 6.7 to generate different EDTA disodium salt concentrations in the final PD composition.
Method: RNA lipoplexes were prepared with increasing amounts of NaCl for condensation of the RNA and liposomes without acetic acid. […]

[6] = RNA integrity in RNA lipoplexes, accelerated storage at 25° C.; conditions: for stabilization of the RNA integrity by buffer system: 5 mM buffer, pH 6.0-7.0, liposomes with 2 mM acetic acid; for stability of the RNA in RNA lipoplexes by buffer system: 10% sucrose, 6.45 mM NaCl, liposomes with 5 mM acetic acid
Description: RNA lipoplexes are incubated under accelerated conditions (25° C.) in the presence of an exemplarily cryoprotectant. RNA integrity was analyzed by capillary electrophoresis over 60 days. Additionally, RNA lipoplexes are incubated under at the anticipated storage conditions (−15° C.) in the presence of an exemplarily cryoprotectant for up to two years. RNA integrity was analyzed by capillary electrophoresis.
The respective RNA lipoplexes were investigated under accelerated conditions (25° C.) and in the frozen state (−15° C.).
RNA lipoplexes were formed with liposomes containing 2 mM of acetic acid. The respective RNA lipoplexes were investigated under accelerated conditions (25° C.) and in the frozen state (−15° C.).
Method: All RNA lipoplexes were automatically prepared in a single batch and the different concentrations of HEPES were adjusted by the addition of a cryoprotectant solution containing different amounts of HEPES. Particle sizes and polydispersity of RNA lipolexes were analyzed by photon correlation spectroscopy (PCS) measurements. Additionally, the RNA integrity was analyzed by capillary electrophoresis and the pH was measured.
In the following study, the concentration of HEPES which is required for stabilization of the pH of the RNA lipoplexes was investigated. RNA lipoplexes were formed with liposomes containing 5 mM of acetic acid and different concentrations of HEPES were adjusted by using different cryoprotectant solutions and the respective RNA lipoplexes were investigated under accelerated conditions (25° C.). The pH range from pH 6.2 to 7.2 was tested.
In the following study, the long-term stability of RNA lipoplexes in the frozen state was investigated with the combination of the reduced concentration of NaCl and Sucrose in the presence of either HEPES or Histidine as a buffering agent at a pH of 6.5.
To analyze the RNA integrity, the RNA had to be isolated from the RNA lipoplexes. Cryoprotected RNA lipoplexes were mixed with RNeasy kit (Qiagen) RLT buffer in a ratio of 1 to 3.5. Then ethanol was added in a ratio of 1 part ethanol to 1.8 parts LPX-RLT.
The further RNA isolation was done using the RNeasy Mini Kit protocol and the RNeasy Mini Kit from Qiagen.
The integrity of the RNA was analyzed using a 48 capillary Fragment Analyzer Automated System by Advanced Analytical (AATI) according to the manufacturers instructions. Results were analyzed via PROSize 2.0 version 2.0.051 data analysis software.
Method: BM1 RNA lipoplexes were prepared as described above. All other RNA lipoplexes were prepared as described above with liposomes containing 5 mM acetic acid.
BM1 RNA lipoplexes were cryoprotected and RNA concentration adjusted as described above. All other RNA lipoplexes were cryoprotected by adding cryoprotection buffer containing the respective buffer substance in a ratio of 1 to 6.7. Final pH values were titrated by adding HCl or NaOH to the cryoprotected RNA lipoplexes, ending up to the following compositions:
Titrated, cryoprotected RNA lipoplexes were filled into 10R glass vials and stored at ambient temperature (25° C.) for at least 61 days. At defined points in time, two vials per group were collected and the RNA integrity was determined.

[7] = DOPE solubility in ethanol (HPLC); format: physicochemical
Description: DOPE and DOPE/DOTMA solubility in ethanol was investigated by preparing 300 mM DOPE or 330 mM DOPE/DOTMA (66:33) solutions in ethanol. The lipids were dissolved by incubating the lipid solutions at 37° C. for 20 minutes. The DOPE solutions were centrifuged at 17000 G for 1h and the DOPE concentration was measured in the supernatant by HPLC. The DOTMA/DOPE solutions were filtered through a 0.22 μm PES syringe filter and the lipid concentration was measured in the filtrate by HPLC. Lipid concentration in the different liposome formulations were measured by HPLC (Agilent technologies. Santa Clara. USA) using a Sunfire C18 2.5 μm 4.6×75 mm column (Waters. Massachusetts. USA) and a wave length of 205 nm. Mobile phase A was a mixture of 70% methanol/30% isopropanol/0.1% TFA, mobile phase B was a mixture of 55% methanol/15% isopropanol/30% water/0.1% TFA. Liposomes samples were or not diluted with water to 3 mM total lipid concentration. It has been tested if DOPE-containing solutions of higher concentration can be prepared (in the supersaturated state) and used for ethanol injection for liposome manufacturing (next section).

[8] = frozen with increasing amounts of cryoprotectant, Z-average, polydispersity, subvisible particles
[9] = 70 mM NaCl, up to 10 times freezing
[10] = 90 mM NaCl, up to 10 times freezing

Compound: O=C([O-])[O-].[Na+].[Na+] [carbonate, sodium carbonate]
stabilization of the RNA (RNA integrity) by buffering system [1]: did not result in comparable stabilization of the RNA

Compound: O=P(O)(O)O [sodium phosphate]
stabilization of the RNA (RNA integrity) by buffering system [1]: comparable results

Compound: O=C(O)[C@@H]1CCCN1 [proline]
stabilization of RNA lipoplexes during freezing [2]: can be used as cryoprotectants for RNA lipoplexes

Compound: OC[C@@H](O)[C@@H](O)[C@H](O)[C@@H](O)CO [sorbitol]
stabilization of RNA lipoplexes during freezing [2, 8]: can be used as cryoprotectants for RNA lipoplexes; also recorded: stabilization efficacy of sorbitol is lower

Compound: OCC(O)CO [Glycerin]
stabilization of RNA lipoplexes during freezing [2, 8]: can be used as cryoprotectants for RNA lipoplexes

Compound: OC[C@H]1O[C@@](CO)(O[C@H]2O[C@H](CO)[C@@H](O)[C@H](O)[C@H]2O)[C@@H](O)[C@@H]1O [sucrose]
preservation of particle size after a single freezing step [2]: acceptable preservation of particle size | sucrose concentration to ensure long-term stability of the drug product [5]: at least 12 % (w/v) | stabilization efficacy on long-term storage [4]: No difference in the stabilization efficacy

Compound: CCCCCCCC/C=C\CCCCCCCC(=O)OC[C@H](COP(=O)(O)OCCN)OC(=O)CCCCCCC/C=C\CCCCCCCC [DOPE, 1,2-di-(9Z-octadecenoyl)-sn-glycero-3-phosphoethanolamine]
DOPE solubility in ethanol [7]: 59 mM

Compound: N[C@@H](Cc1c[nH]cn1)C(=O)O [Histidine]
stabilization of the RNA integrity by buffer system [6]: slightly reduced stability | stability of the RNA in RNA lipoplexes by buffer system [6]: lower stability

Continued, in another order:

stabilization of RNA lipoplexes during freezing [2, 8]: clearly destabilizes the RNA lipoplexes
Compound: N=C(N)NCCC[C@H](N)C(=O)O [arginine]

acetic acid concentration above which stabilization efficacy plateaus ([3]; liposomes 0.9 mM total lipid): approx. 1 mM
Compound: CC(=O)O [acetic acid]
stability of DOPE in liposomes (DOPE ester hydrolysis) ([3]; 0-3 mM acetic acid, 4° C., 25° C., 40° C., up to 6 months): Stability increases for all measured temperatures with increasing acetic acid concentration

trehalose sufficient for stabilization of RNA lipoplex particle characteristics ([2]; 50 mM NaCl, even after 10 times freezing): ≥ 12.5% | trehalose required for exact preservation of the particle size [2, 9]: ≥ 22.5% | trehalose required for minimum stabilization [2, 9]: ≥ 12.5% | trehalose required for minimum stabilization [2, 10]: ≥ 15.0% | preservation of particle size after a single freezing step [2]: acceptable preservation of particle size
Compound: OC[C@H]1O[C@H](O[C@H]2O[C@H](CO)[C@@H](O)[C@H](O)[C@H]2O)[C@H](O)[C@@H](O)[C@@H]1O [trehalose]
exact preservation of the particle size [2, 10]: could not be achieved even with the highest investigated concentration of 27.5% | stabilization efficacy on long-term storage [4]: No difference in the stabilization efficacy

stability of the RNA in RNA lipoplexes by buffer system [6]: best stability
Compound: O=S(=O)(O)CCN1CCN(CCO)CC1 [HEPES, 2-[4-(2-hydroxyethyl)piperazin-1-yl]ethanesulfonic acid]
stabilization of the RNA integrity by buffer system [6]: comparable stabilization of the RNA integrity | RNA stability in the drug product by buffer ([6]; 61 days, pH 6.4 to 7.0, vs Histidine, MES, Na-Acetate): significantly enhanced RNA stability in the drug product
